According to PMC9100673, “Acridine Based N-Acylhydrazone Derivatives as Potential Anticancer Agents: Synthesis, Characterization and ctDNA/HSA Spectroscopic Binding Properties” (Molecules, 2022):

Assays:
A549 cells [1] = test: Colony forming (clonogenic) assay; assay type: cell-based, human; conditions: 48 h treatment, 7 days cultivation; for effect on ability of A549 cells to form new colonies: 25 μM; for reduction of clonogenic ability of A549 cells vs control: 50 μM
Description: To assess drug efficacy and prevent treatment failure, it is important to observe whether cancer cells may proliferate during the interval between treatments. The clonogenic assay evaluates the efficacy of new drugs by observation of reduced repopulation of cancer cells and cell survival after treatment. This assay is important to select eligible anticancer drug candidates. The clonogenic survival was analysed after treatment of A549 cells with the compounds 3a and 3c. DMSO (0.5%) was used as solvent control. A549 cells were treated with 3a and 3c in concentrations of 25 and 50 μM for 48 h. The cells were then counted, and 500 viable cells per well were seeded and cultivated for another seven days under standard conditions.
For the colony forming assay, floating and adherent cells were harvested together 48 h after treatment with the studied compounds (25 and 50 µM). The cells were then counted using a Bürker chamber with eosin staining and 500 viable cells per well were seeded in 6-well plates. After seven days of cultivation under standard conditions, the cells in the plates were fixed and stained with 1% methylene blue dye in methanol. Visualized colonies were scanned and counted by Image software, and the results were evaluated as percentages of the untreated control. The results are presented as the average percentage of colonies from three independent experiments.

A549 cells [2] = test: Cell cycle analysis by flow cytometry; assay type: cell-based, human; conditions: 25 and 50 μM, 48 h
Description: For flow cytometric analysis of the cell cycle distribution, floating and adherent cells were harvested together 48 h after treatment with the compounds (25 and 50 µM), washed in cold PBS, fixed in cold 70% ethanol, and stored overnight at −20 °C. Prior to analysis, the cells were washed twice in PBS, resuspended in a staining solution (0.1% Triton X-100, 0.137 g L^−1 ribonuclease A and 0.02 g L^−1 propidium iodide (PI) and incubated in dark conditions at RT for 30 min. The DNA content was analysed using a BD FACSCalibur flow cytometer (Becton Dickinson, San Jose, CA, USA) with a 488 nm argon-ion excitation laser, and fluorescence was detected using a 585/42 nm band-pass filter (FL-2). ModFit 3.0 software (Verity Software House, Topsham, ME, USA) was used to generate DNA content frequency histograms and to quantify the percentage of cells in the individual cell cycle phases. The results are presented as the average ratio of cells in the individual phase to all cells from three independent experiments.

[3] = molecular target: T1, human serum albumin (HSA) (Homo sapiens, UniProt P02768); test: Three-dimensional fluorescence spectra of HSA; assay type: binding; conditions: HSA:compound 1:1, 4 μM, 25 °C
T1 construct: purchased Sigma (St. Louis, MO, USA)
T1 sequence (P02768 25-609): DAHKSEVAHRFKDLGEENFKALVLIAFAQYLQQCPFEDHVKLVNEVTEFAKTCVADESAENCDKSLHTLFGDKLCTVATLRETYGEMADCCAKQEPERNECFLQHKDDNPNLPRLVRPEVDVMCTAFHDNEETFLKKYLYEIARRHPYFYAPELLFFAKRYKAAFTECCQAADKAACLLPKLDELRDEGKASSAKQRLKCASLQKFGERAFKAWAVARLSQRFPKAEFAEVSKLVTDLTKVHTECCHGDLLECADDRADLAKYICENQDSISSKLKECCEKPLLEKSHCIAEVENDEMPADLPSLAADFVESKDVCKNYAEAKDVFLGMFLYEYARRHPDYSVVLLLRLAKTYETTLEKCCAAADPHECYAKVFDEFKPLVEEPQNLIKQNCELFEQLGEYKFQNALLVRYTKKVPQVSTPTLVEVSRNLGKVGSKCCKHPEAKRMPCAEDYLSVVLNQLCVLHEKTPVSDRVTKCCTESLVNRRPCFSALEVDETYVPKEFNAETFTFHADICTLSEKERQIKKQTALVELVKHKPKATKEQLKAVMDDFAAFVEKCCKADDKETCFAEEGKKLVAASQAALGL
From the text: A useful method for studying drug-HSA interactions is three-dimensional fluorescence spectroscopy, which can offer information about the structural changes to the polypeptide backbone structure and the microenvironment polarity around the Trp and Tyr residues. Peak a (λex = λem) is […], while peak b (2λex = λem) is […]. The change at peak 1 (280/339 nm) reflects a change in the polarity of the microenvironment around the Trp and Tyr residues, and peak 2 (230/336 nm) characterizes the polypeptide backbone structure. […] The fluorescence intensities of both peaks decreased after the addition of derivatives 3a–3d, with a more pronounced decrease observed in the fluorescence intensity of peak 2. […] The changes observed in the 3D spectra correlate with the results of earlier quenching fluorescence experiments. […]
The 3DF spectra of HSA were performed in the absence and presence of compounds 3a–3d using an excitation wavelength range of 200–350 nm and an emission wavelength range of 200–600 nm at room temperature (25 °C). The 3D spectra were recorded for 4 μM of HSA in a 2 mL buffer solution (100 mM NaCl and 10 mM Tris-HCl buffer pH = 7.4) and for the HSA:3a–3d complexes at a concentration ratio 1:1. […]

A549 cells [4] = test: Quantification of cell number and viability (eosin staining, Bürker chamber); assay type: cell-based, human; conditions: 50 μM, 48 h
Description: For the assessment of total cell numbers and viability within individual experimental groups, floating and adherent cells were harvested after treatment with the studied compounds and evaluated using a Bürker chamber with eosin staining. A549 cells were plated at a density of 135 × 10^3 cell/well into a 6-well plate and treated with different concentration of derivatives (25 and 50 µM) for 48 h. The total cell number was expressed as a percentage of the untreated control of the total cell number. Viability was expressed as a percentage of viable, eosin negative cells. The results are presented as the average percentage of cells from three independent experiments.

| SMILES | effect on ability of A549 cells to form new colonies (A549 cells [1]) | reduction of clonogenic ability of A549 cells vs control (A549 cells [1]) [%] | effect on cell cycle distribution (A549 cells [2]) | blue shift of peak 1 (280/339 nm) [3] [nm] | blue shift of peak 2 (230/336 nm) [3] [nm] | decrease of viability of A549 cells vs control (A549 cells [4]) [%] | reduction of total cell number vs control (A549 cells [4]) |
| --- | --- | --- | --- | --- | --- | --- | --- |
| O=C(N/N=C/c1cccc2cc3ccccc3nc12)c1ccccc1 [3a, N′-[(E)-(Acridin-4-yl)methylidene]benzohydrazide] | did not significantly reduce | 72 | accumulation of cells in the G2/M phase | 8 | 10 | 34 | approximately 94% |
| O=C(N/N=C/c1cccc2cc3ccccc3nc12)c1ccc(Cl)cc1 [3c, N′-[(E)-Acridin-4-ylmethylidene]-4-chlorobenzohydrazide] | did not significantly reduce | 74 | accumulation of cells in the G2/M phase | – | – | 14 | ~91% |
